Source: patent publication US20020052295A1, “Diacyl derivatives of propylene diamine having herbicidal activity” (priority 1999, published 2002)

What was measured:
PANMI = assay: Pre-emergence herbicidal activity on PANMI (wild proso millet); assay type: in vivo, Panicum miliaceum; details: for Pre-emergence activity (GR80) on PANMI: lowest tested rate giving 80% or greater inhibition, approx. 14 days after planting and treating, greenhouse
How it was run: (§1)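 Steps: sterilized fertilized topsoil potted; seeds sown, covered; compound (50:50 acetone/water dilution) applied to soil surface; 0.64 cm overhead irrigation; greenhouse 30/21 °C day/night; % inhibition vs untreated scored at ~14 d; GR80 calculated.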

DATST = assay: Pre-emergence herbicidal activity on DATST (jimsonweed); assay type: in vivo, Datura stramonium; details: for Pre-emergence activity (GR80) on DATST: lowest tested rate giving 80% or greater inhibition, approx. 14 days after planting and treating, greenhouse
How it was run: as §1

SOLNI = assay: Pre-emergence herbicidal activity on SOLNI (black nightshade); assay type: in vivo, Solanum nigrum; details: for Pre-emergence activity (GR80) on SOLNI: lowest tested rate giving 80% or greater inhibition, approx. 14 days after planting and treating, greenhouse
How it was run: as §1

PANDI = assay: Pre-emergence herbicidal activity on PANDI (fall panicum); assay type: in vivo, Panicum dichotomiflorum; details: for Pre-emergence activity (GR80) on PANDI: lowest tested rate giving 80% or greater inhibition, approx. 14 days after planting and treating, greenhouse
How it was run: as §1

DIGSA = assay: Pre-emergence herbicidal activity on DIGSA (large crabgrass); assay type: in vivo, Digitaria sanguinalis; details: for Pre-emergence activity (GR80) on DIGSA: lowest tested rate giving 80% or greater inhibition, approx. 14 days after planting and treating, greenhouse
How it was run: as §1

CONAR = assay: Pre-emergence herbicidal activity on CONAR (field bindweed); assay type: in vivo, Convolvulus arvensis; details: for Pre-emergence activity (GR80) on CONAR: lowest tested rate giving 80% or greater inhibition, approx. 14 days after planting and treating, greenhouse
How it was run: as §1

SORHA = assay: Pre-emergence herbicidal activity on SORHA (johnsongrass, seedling); assay type: in vivo, Sorghum halepense; details: for Pre-emergence activity (GR80) on SORHA: lowest tested rate giving 80% or greater inhibition, approx. 14 days after planting and treating, greenhouse
How it was run: as §1

SETFA = assay: Pre-emergence herbicidal activity on SETFA (giant foxtail); assay type: in vivo, Setaria faberi; details: for Pre-emergence activity (GR80) on SETFA: lowest tested rate giving 80% or greater inhibition, approx. 14 days after planting and treating, greenhouse
How it was run: as §1

AMARE = assay: Pre-emergence herbicidal activity on AMARE (redroot pigweed); assay type: in vivo, Amaranthus retroflexus; details: for Pre-emergence activity (GR80) on AMARE: lowest tested rate giving 80% or greater inhibition, approx. 14 days after planting and treating, greenhouse
How it was run: as §1

BRAPP = assay: Pre-emergence herbicidal activity on BRAPP (broadleaf signalgrass); assay type: in vivo, Brachiaria platyphylla; details: for Pre-emergence activity (GR80) on BRAPP: lowest tested rate giving 80% or greater inhibition, approx. 14 days after planting and treating, greenhouse
How it was run: as §1

SORVU = assay: Pre-emergence herbicidal activity on SORVU (shattercane); assay type: in vivo, Sorghum vulgare; details: for Pre-emergence activity (GR80) on SORVU: lowest tested rate giving 80% or greater inhibition, approx. 14 days after planting and treating, greenhouse
Text: All such uses, and the biological activity enabling such uses, are embraced by the term “herbicidal” herein. Tables 15 and 16 summarize results of tests conducted as described below to determine the pre-emergence herbicidal activity, in the form of a GR80 value, of illustrative compounds of this invention. […] Where herbicidal activity was evident but 80% inhibition was not achieved at the highest rate tested (typically 1000 g/ha), an asterisk (*) is shown in the following tables. Herbicidal activity evident in the form of symptoms of phytotoxicity, in the absence of at least 80% inhibition at any rate, is indicated in the tables by “phyto”. A blank cell in the following tables indicates no herbicidal or phytotoxic response at any rate tested.
(§2) The pre-emergence tests were conducted by the following procedure. Topsoil was sieved to pass through a 1.27 cm screen. Fertilizer was added to the topsoil and the mixture was then sterilized by heating. The topsoil mixture was placed in a pot and compacted to a depth of 1.0 to 1.25 cm from the top of the pot. Seeds of each of several monocotyledonous and dicotyledonous annual plant species were placed on top of the soil. Additional soil was subsequently placed over the seeds to level-fill the pot. A known amount of each test compound dissolved or suspended in an appropriate organic solvent was diluted with a 50:50 mix of acetone and water and applied to the surface of the soil. After treatment the plants were placed in a greenhouse with a 30/21° C. day/night temperature regime where they received 0.64 cm of overhead irrigation. All subsequent watering consisted of a light overhead mist and/or subirrigation as needed for germination and growth.
Approximately 14 days after planting and treating, the plants were observed and herbicidal efficacy recorded as percent inhibition by comparison with untreated plants.
The plant species usually regarded as weeds which were utilized in the tests are identified in the tables below according to the following legend, in which “d” indicates a dicotyledonous species and “m” a monocotyledonous species. All monocotyledonous species included in the tests herein are grasses.

CHEAL = assay: Pre-emergence herbicidal activity on CHEAL (common lambsquarters); assay type: in vivo, Chenopodium album; details: for Pre-emergence activity (GR80) on CHEAL: lowest tested rate giving 80% or greater inhibition, approx. 14 days after planting and treating, greenhouse
How it was run: as §1

ABUTH = assay: Pre-emergence herbicidal activity on ABUTH (velvetleaf); assay type: in vivo, Abutilon theophrasti; details: for Pre-emergence activity (GR80) on ABUTH: lowest tested rate giving 80% or greater inhibition, approx. 14 days after planting and treating, greenhouse
How it was run: as §1

ECHCG = assay: Pre-emergence herbicidal activity on ECHCG (barnyardgrass); assay type: in vivo, Echinochloa crus-galli; details: for Pre-emergence activity (GR80) on ECHCG: lowest tested rate giving 80% or greater inhibition, approx. 14 days after planting and treating, greenhouse
How it was run: as §1

CIRAR = assay: Pre-emergence herbicidal activity on CIRAR (canada thistle, seedling); assay type: in vivo, Cirsium arvense; details: for Pre-emergence activity (GR80) on CIRAR: lowest tested rate giving 80% or greater inhibition, approx. 14 days after planting and treating, greenhouse
How it was run: as §1

POROL = assay: Pre-emergence herbicidal activity on POROL (common purslane); assay type: in vivo, Portulaca oleracea; details: for Pre-emergence activity (GR80) on PORAL: lowest tested rate giving 80% or greater inhibition, approx. 14 days after planting and treating, greenhouse
How it was run: as §1

[1] = system: monocotyledonous and dicotyledonous annual plant species; assay: Greenhouse pre-emergence test, all species of the test taken together; assay type: in vivo; details: rates 1000 to 10 g/ha, all species of Tables 19 and 20
Text: All such uses, and the biological activity enabling such uses, are embraced by the term “herbicidal” herein. […] Where herbicidal activity was evident but 80% inhibition was not achieved at the highest rate tested (typically 1000 g/ha), an asterisk (*) is shown in the following tables. Herbicidal activity evident in the form of symptoms of phytotoxicity, in the absence of at least 80% inhibition at any rate, is indicated in the tables by “phyto”. A blank cell in the following tables indicates no herbicidal or phytotoxic response at any rate tested.
as §2
Pre-emergence herbicidal activity of the compound of Example 5, a racemic mixture of R- and S-enantiomers of N,N′-(1,2-propanediylbis)-3-(trifluoromethyl) benzamide, was compared with that of the individual R- and S-enantiomers, the compounds of Examples 5a and 5b respectively. The procedure was exactly as described above. Rates tested were 1000, 650, 300, 200, 100, 65, 30 and 10 g/ha.
In a greenhouse pre-emergence test conducted according to the procedure described hereinabove, R—N,N′-(1,2-propanediylbis)-3-(trifluoromethyl)benzamide (the compound of Example 5a) was applied at 200 g/ha and acetochlor was applied at 100 g/ha, both individually and in combination.
In the same greenhouse pre-emergence test, R-2-fluoro-3-trifluoromethyl-N-[1-methyl-2-(3-trifluoromethyl)phenylcarbonylamino]ethylbenzamide (the compound of Example 13) was applied at 100 g/ha and acetochlor was applied at 100 g/ha, both individually and in combination.

[2] = racemic mixture vs enantiomers test, rates tested 1000, 650, 300, 200, 100, 65, 30 and 10 g/ha, lowest rate with 80% or greater inhibition

Compound	Pre-emergence activity (GR80) on PANMI (PANMI) [g/ha]	Pre-emergence activity (GR80) on DATST (DATST) [g/ha]	Pre-emergence activity (GR80) on SOLNI (SOLNI) [g/ha]	Pre-emergence activity (GR80) on PANDI (PANDI) [g/ha]	Pre-emergence activity (GR80) on DIGSA (DIGSA) [g/ha]	Pre-emergence activity (GR80) on CONAR (CONAR)	Pre-emergence activity (GR80) on SORHA (SORHA) [g/ha]	Pre-emergence activity (GR80) on SETFA (SETFA) [g/ha]	Pre-emergence activity (GR80) on AMARE (AMARE) [g/ha]	Pre-emergence activity (GR80) on BRAPP (BRAPP) [g/ha]	Pre-emergence activity (GR80) on SORVU (SORVU)	Pre-emergence activity (GR80) on CHEAL (CHEAL) [g/ha]	Pre-emergence activity (GR80) on ABUTH (ABUTH) [g/ha]	Pre-emergence activity (GR80) on ECHCG (ECHCG)	Pre-emergence activity (GR80) on CIRAR (CIRAR) [g/ha]	Pre-emergence activity (GR80) on PORAL (POROL) [g/ha]	further results
CC(CNC(=O)c1cccc(C(F)(F)F)c1)NC(=O)c1cccc(Cl)c1Cl (stereo not shown) [Example 50]	1000	125	125	250	125	250 g/ha	1000	750	32	500	* (Where herbicidal activity was evident but 80% inhibition was not achieved at the highest rate tested (typically 1000 g/ha), an asterisk (*) is shown)	32	750	* (Where herbicidal activity was evident but 80% inhibition was not achieved at the highest rate tested (typically 1000 g/ha), an asterisk (*) is shown)	64	32	
CC(CNC(=O)c1cccc(C(F)(F)F)c1)NC(=O)c1ccccc1Cl (stereo not shown) [Example 103]	1000	500	250	500	500	* (Where herbicidal activity was evident but 80% inhibition was not achieved at the highest rate tested (typically 1000 g/ha), an asterisk (*) is shown)	500	500	125	750	phyto	500	750	phyto	750	125	
CC(CNC(=O)c1cccc(C(F)(F)F)c1)NC(=O)c1cccc(C(F)(F)F)c1 (stereo not shown) [Example 5b]																	Pre-emergence activity (GR80) PANMI (PANMI; [2]): [empty]; Pre-emergence activity (GR80) DATST (DATST; [2]): [empty]; Pre-emergence activity (GR80) SOLNI (SOLNI; [2]): [empty]; Pre-emergence activity (GR80) PANDI (PANDI; [2]): [empty]; Pre-emergence activity (GR80) DIGSA (DIGSA; [2]): [empty]; Pre-emergence activity (GR80) CONAR (CONAR; [2]): [empty]; Pre-emergence activity (GR80) SORHA (SORHA; [2]): [empty]; pre-emergence herbicidal activity (in words) [1]: completely inactive; Pre-emergence activity (GR80) SETFA (SETFA; [2]): [empty]; Pre-emergence activity (GR80) AMARE (AMARE; [2]): [empty]; Pre-emergence activity (GR80) BRAPP (BRAPP; [2]): [empty]; Pre-emergence activity (GR80) SORVU (SORVU; [2]): [empty]; Pre-emergence activity (GR80) CHEAL (CHEAL; [2]): [empty]; Pre-emergence activity (GR80) ABUTH (ABUTH; [2]): [empty]; Pre-emergence activity (GR80) ECHCG (ECHCG; [2]): [empty]; Pre-emergence activity (GR80) CIRAR (CIRAR; [2]): [empty]; Pre-emergence activity (GR80) PORAL (POROL; [2]): [empty]
